Experiment [1] deals with T1, TrkB:PLCγ1 (Mus musculus, UniProt P15209).
T1 construct: from tissue; host or cells: prefrontal cortex and hippocampus of adult mice
Put plainly: TrkB:PLCγ1 interaction in PFC and hippocampus after single LSD injection (ELISA, co-immunoprecipitation). As to conditions: WT mice, single administration. The experiment is classed as in vivo. The protocol: (§1) The phosphorylation of TrkB (pY816) and interaction with PLCγ1 were assessed by enzyme-linked immunosorbent assay (ELISA) as previously described[11],[80],[81] with minor modifications. Briefly, white 96-well plates (PerkinElmer, OptiPlate 96F-HB) were precoated with goat anti-TrkB (R&D systems, AF1494; 1:500, overnight, 4 °C) antibody in carbonate buffer (pH 9.8) and blocked with 3% BSA in PBS with 0.1% Tween-20 (PBS-T) for 2 h at room temperature. […] Samples were incubated overnight at 4 °C, and 24 h later plates were washed with PBS-T and incubated with either rabbit anti-phospho-TrkB(Tyr816) (Cell Signaling Technology, 4168S; 1:2,000), rabbit anti-PLCγ1 (Cell Signaling Technologies, 5690S; 1:2,000) or rabbit anti-Trk (Cell Signaling Technologies, 92991; 1:2,000) antibodies overnight at 4 °C. After washing with PBS-T, plates were incubated with HRP-conjugated goat anti-rabbit (Bio-Rad, 170–5046; 1:5,000, 1 h, room temperature) antibody, followed by more washing with PBS-T. Finally, the chemiluminescent signal was read after brief incubation with Pierce ECL substrate (Thermo Fisher Scientific, 32106). Luminescence from blank wells that contained all reagents but the sample lysates was used to determine background signal. […]

Experiment [2] deals with T2, TrkB:PLCγ1 (Mus musculus, UniProt P15209, Y433F).
T2 construct: from tissue; host or cells: prefrontal cortex and hippocampus of adult mice
T2 sequence (P15209 32-821 Y433F): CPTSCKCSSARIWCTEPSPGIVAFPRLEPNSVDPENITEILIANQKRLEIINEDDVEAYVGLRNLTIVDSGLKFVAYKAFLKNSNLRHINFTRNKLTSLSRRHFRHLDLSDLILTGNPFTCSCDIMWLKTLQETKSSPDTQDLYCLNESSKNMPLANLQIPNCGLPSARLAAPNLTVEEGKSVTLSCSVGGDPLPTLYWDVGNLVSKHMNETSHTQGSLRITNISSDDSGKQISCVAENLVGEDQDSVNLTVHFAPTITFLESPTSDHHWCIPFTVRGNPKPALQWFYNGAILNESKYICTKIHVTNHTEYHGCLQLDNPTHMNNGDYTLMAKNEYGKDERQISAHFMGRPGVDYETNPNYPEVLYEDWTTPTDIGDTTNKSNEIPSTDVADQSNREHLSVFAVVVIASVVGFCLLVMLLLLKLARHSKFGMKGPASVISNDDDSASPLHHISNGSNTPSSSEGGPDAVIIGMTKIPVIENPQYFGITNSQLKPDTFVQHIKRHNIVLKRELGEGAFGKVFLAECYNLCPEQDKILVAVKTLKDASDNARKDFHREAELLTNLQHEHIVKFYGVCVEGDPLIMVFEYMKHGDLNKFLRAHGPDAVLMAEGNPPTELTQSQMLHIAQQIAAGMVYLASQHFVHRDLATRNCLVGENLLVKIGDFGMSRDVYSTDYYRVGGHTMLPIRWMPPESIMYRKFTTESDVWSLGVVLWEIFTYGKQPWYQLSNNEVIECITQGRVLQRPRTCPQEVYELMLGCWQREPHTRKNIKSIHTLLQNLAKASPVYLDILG
T2 sequence (P15209 32-821, stated change not applied): as the sequence (P15209 32-821 Y433F) above, with F402Y counted along it
The experiment is described as above. It counts as in vivo. The note with it: Y433F^+/− mice. The procedure:
as §1

The subject of the next experiment is pmTOR. Put plainly: Western blot of mTOR phosphorylation in cortical neurons. It counts as cell-based, rat. The note with it: LSD 100 nM. The protocol:
(§2) In a separate set of experiments to examine the effect of 5-HT2A activation, M100907 (100 nM) was administered as a 10 min pretreatment and remained in the medium for the rest of the experiment. Next, cells were lysed and centrifuged. […] The co-immunoprecipitation was carried out as previously described[11],[23],[24] with minor modifications. Briefly, Magnetic Dynabeads Protein G (Invitrogen, 10004D) were coated with anti-TrkB antibody (R&D Systems, AF1494) at 200 ng of antibody per 1 µl of beads in rotation (2 h, 4 °C). Finally, lysates were mixed with the coated beads (100 µg of total protein per 15 µl of beads) and incubated in rotation (overnight, 4 °C).
(§3) Proteins were separated according to their molecular weight by SDS–PAGE and transferred to a polyvinylidene fluoride membrane. Membranes were incubated with the following primary antibodies (all 1:1,000 in 3% BSA in TBS-T, overnight, 4 °C): anti-TrkB (R&D Systems, AF1494), anti-β-actin (Sigma-Aldrich, A1978), anti-phospho-mTOR (Cell Signaling Technology, 5536S), anti-phospho-p44/42 MAPK (Erk1/2) (Cell Signaling Technology, 9106S), anti-mTOR (Cell Signaling Technology, 2972S) and anti-p44/42 MAPK (Erk1/2) (Cell Signaling Technology, 9102S). […] Protein bands were visualized using enhanced chemiluminescent substrate (Thermo Scientific, 32132, ECL Plus) and imaged with a charge-coupled device camera (G:BOX, Syngene).

For another experiment, the system named is TrkA.TM chimera. Put plainly: ^3H-LSD saturation binding, TrkB with TMD of TrkA. As to conditions: TMD of TrkB replaced by that of TrkA. The procedure: (§4) Binding assays were performed as previously described with minor modifications. […] Samples from mouse embryo (E18) brains were also lysed, vortexed, sonicated and centrifuged for binding assays. Plates were then washed with PBS. […] For the competition binding assays with biotinylated R,R-HNK, the amino-biotinylation of R,R-HNK was performed using a commercial kit (Thermo Scientific, EZ-Link NHS-PEG4 Biotinylation Kit, 21455) and the reaction monitored by MS. A mixture of biotinylated R,R-HNK (10 µM) and unlabeled compounds (1 pM to 10 µM) in PBS was added to the 96-well plates containing the immunoprecipitated TrkB and incubated for 1 h at room temperature. […] Luminescence was determined via streptavidin conjugated with horseradish peroxidase (HRP; Thermo Fisher Scientific, 21126; 1:5,000, 1 h at room temperature) in reaction with the Pierce ECL substrate (Thermo Fisher Scientific, 32106). Luminescence from blank wells that contained all reagents but the sample lysates was used to determine nonspecific binding. To obtain the binding curves, results from binding assays were fitted to the equation of specific binding with Hill slope from GraphPad Prism 9.2. To calculate koff values, results were fitted to the equation of dissociation of one phase exponential decay from GraphPad Prism 9.2.

For experiment [3], the system named is TrkB. Put plainly: Total TrkB expression in PFC and hippocampus after single LSD injection. The experiment is classed as in vivo, mouse. The note with it: PFC or hippocampus, WT or Y433F^+/− mice. The protocol:
The phosphorylation of TrkB (pY816) and interaction with PLCγ1 were assessed by enzyme-linked immunosorbent assay (ELISA) as previously described[11],[80],[81] with minor modifications. Briefly, white 96-well plates (PerkinElmer, OptiPlate 96F-HB) were precoated with goat anti-TrkB (R&D systems, AF1494; 1:500, overnight, 4 °C) antibody in carbonate buffer (pH 9.8) and blocked with 3% BSA in PBS with 0.1% Tween-20 (PBS-T) for 2 h at room temperature. […] Samples were incubated overnight at 4 °C, and 24 h later plates were washed with PBS-T and incubated with either rabbit anti-phospho-TrkB(Tyr816) (Cell Signaling Technology, 4168S; 1:2,000), rabbit anti-PLCγ1 (Cell Signaling Technologies, 5690S; 1:2,000) or rabbit anti-Trk (Cell Signaling Technologies, 92991; 1:2,000) antibodies overnight at 4 °C. After washing with PBS-T, plates were incubated with HRP-conjugated goat anti-rabbit (Bio-Rad, 170–5046; 1:5,000, 1 h, room temperature) antibody, followed by more washing with PBS-T. Finally, the chemiluminescent signal was read after brief incubation with Pierce ECL substrate (Thermo Fisher Scientific, 32106). Luminescence from blank wells that contained all reagents but the sample lysates was used to determine background signal.

In a further experiment the target is T3, human TrkB (Homo sapiens, UniProt Q16620).
T3 construct: GFP; expressed in transfected cells; host or cells: HEK293T
T3 sequence (Q16620 32-822): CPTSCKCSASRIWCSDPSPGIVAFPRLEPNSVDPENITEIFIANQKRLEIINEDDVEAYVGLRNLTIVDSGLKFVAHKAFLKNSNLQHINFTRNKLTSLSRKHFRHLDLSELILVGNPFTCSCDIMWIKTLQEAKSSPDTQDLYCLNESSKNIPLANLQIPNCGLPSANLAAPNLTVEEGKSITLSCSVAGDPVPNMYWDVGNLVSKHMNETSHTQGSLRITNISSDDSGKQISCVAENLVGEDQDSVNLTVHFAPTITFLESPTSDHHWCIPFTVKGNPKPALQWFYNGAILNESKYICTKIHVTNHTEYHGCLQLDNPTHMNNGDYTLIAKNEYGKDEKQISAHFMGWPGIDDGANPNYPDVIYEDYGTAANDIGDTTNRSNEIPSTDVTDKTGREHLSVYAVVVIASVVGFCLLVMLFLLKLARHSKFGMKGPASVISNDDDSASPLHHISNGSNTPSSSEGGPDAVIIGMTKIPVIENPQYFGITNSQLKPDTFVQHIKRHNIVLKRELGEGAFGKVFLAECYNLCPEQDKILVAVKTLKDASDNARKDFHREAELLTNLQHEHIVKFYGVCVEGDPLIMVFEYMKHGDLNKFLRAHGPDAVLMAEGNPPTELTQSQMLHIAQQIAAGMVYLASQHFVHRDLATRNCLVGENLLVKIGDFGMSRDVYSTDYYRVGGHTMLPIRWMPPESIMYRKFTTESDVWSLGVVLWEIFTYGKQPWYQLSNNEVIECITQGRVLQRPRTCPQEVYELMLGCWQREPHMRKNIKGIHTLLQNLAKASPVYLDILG
Put plainly: ^3H-LSD saturation binding to TrkB immunoprecipitated from HEK293T lysates. The procedure:
as §4

For the next experiment, the target named is T4, rat TrkB (WT) (Rattus norvegicus, UniProt Q63604).
T4 construct: expressed in transfected cells; host or cells: HEK293T
T4 sequence (Q63604 32-821): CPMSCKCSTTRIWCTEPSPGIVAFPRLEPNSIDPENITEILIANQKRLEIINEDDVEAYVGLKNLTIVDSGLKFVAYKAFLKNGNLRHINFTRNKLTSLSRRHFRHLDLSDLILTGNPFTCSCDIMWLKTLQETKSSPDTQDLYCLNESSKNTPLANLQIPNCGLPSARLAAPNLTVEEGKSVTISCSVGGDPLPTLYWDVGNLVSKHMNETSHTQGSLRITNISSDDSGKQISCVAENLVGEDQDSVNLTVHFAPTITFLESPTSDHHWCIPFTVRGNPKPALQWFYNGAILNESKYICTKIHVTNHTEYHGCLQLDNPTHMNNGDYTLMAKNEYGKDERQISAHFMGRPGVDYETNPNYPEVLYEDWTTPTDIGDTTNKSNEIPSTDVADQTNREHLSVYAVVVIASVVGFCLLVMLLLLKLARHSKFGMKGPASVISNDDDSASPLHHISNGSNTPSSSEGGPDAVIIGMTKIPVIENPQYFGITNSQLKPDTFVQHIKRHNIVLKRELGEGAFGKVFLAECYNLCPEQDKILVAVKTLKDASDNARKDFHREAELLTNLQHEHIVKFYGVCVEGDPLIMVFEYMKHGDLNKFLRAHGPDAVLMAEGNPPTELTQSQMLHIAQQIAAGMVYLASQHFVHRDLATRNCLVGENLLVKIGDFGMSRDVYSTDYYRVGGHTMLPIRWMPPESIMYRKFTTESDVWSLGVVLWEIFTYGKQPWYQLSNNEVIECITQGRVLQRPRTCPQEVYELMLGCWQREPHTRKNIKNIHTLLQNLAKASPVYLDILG
The description is as above. The procedure:
as §4

Experiment [4] concerns TrkB. Put plainly: Western blot of TrkB protein expression in N2a cells. It counts as cell-based. As to conditions: WT and Y433F^+/−. The protocol: as §2, §3
(In general: In western blotting, separated proteins are transferred to a membrane and probed.)

Experiment [5] concerns TrkB cell surface retention. Briefly: Cell surface retention of TrkB in cortical neurons. It counts as cell-based, rat. The procedure:
The cell surface retention of TrkB was measured as previously described[11],[82]. […] For antagonist experiments, cultures were pretreated with M100907 (100 nM) for 10 min and remained present for the rest of the experiment. After washing with PBS and incubating for 1 h with blocking buffer (5% nonfat dry milk and 5% BSA) at room temperature, plates were incubated with goat anti-TrkB antibody (R&D Systems, AF1494; 1:1,000, overnight, 4 °C). After further PBS washes, plates were incubated with HRP-conjugated […] antibody (Bio-Rad, 170–5046; 1:5,000, 1 h, room temperature). Finally, wells were washed with PBS and the chemiluminescent signal was read after brief incubation with Pierce ECL substrate (Thermo Fisher Scientific, 32106).

One may read the Kd as the concentration at which binding is half-saturated.

Structures are written as SMILES.

T1 sequence (P15209 32-821): as the sequence (P15209 32-821 Y433F) above, with F402Y counted along it

Turning to `CCN(CC)C(=O)C1C=C2c3cccc4[nH]cc(c34)CC2N(C)C1` (stereo not drawn) [LSD, lysergic acid diethylamide], the “TrkB:PLCγ1 interaction” value on TrkB:PLCγ1 [1] is on record as “increases TrkB:PLCγ1 interaction”; on TrkB:PLCγ1 [2], “these effects are impaired”. The “phosphorylation of mTOR” value in the experiment with pmTOR is “promotes phosphorylation of mTOR for at least 1 h”. Besides, in the experiment with TrkA.TM chimera, the LSD binding entry was “completely abolishes LSD binding”. The “total TrkB expression” value in the experiment on TrkB [3] was “remain unaffected”; with TrkB [4], “No differences in total TrkB expression”. Also, the dissociation constant (Kd) at human TrkB was 930 ± 414 pM; on rat TrkB (WT), 656 ± 93 pM. Also, the Bmax at human TrkB (^3H-LSD saturation, human TrkB) was determined as 4.028 ± 0.326 pmol mg^−1 protein; on rat TrkB (WT) (^3H-LSD saturation, rat TrkB), 3.053 ± 0.099 pmol mg^−1 protein. Besides, on human TrkB (ext fig 1a, TRKB.wt, n=2), the “Bmax (specific binding with Hill slope, best-fit)” value stood at 111.1. The “h (Hill slope, best-fit)” value on human TrkB (ext fig 1a, TRKB.wt, n=2) was 0.4722. On rat TrkB (WT) (WT, Hill slope), the “h (best-fit, 1a)” value came out at 1.255. Moreover, at rat TrkB (WT) (WT, specific binding with Hill slope), the “Bmax (best-fit, 1a)” value is listed as 100.9. The “TrkB cell surface retention” value in experiment [5] was “increases TrkB cell surface retention independently of 5-HT2A activation”.
